According to patent publication US7635572B2, “Methods for conducting assays for enzyme activity on protein microarrays” (Life Technologies Corporation, priority 2004, dated 2009):

Target: PRKCD (Homo sapiens, UniProt Q05655)
Assay: Dose-response analysis on 10-well kinase microarray (Example III, FIG. 4)
Format: biochemical
Details: different inhibitor concentration in each well; substrate MBP, histone, casein
Description: Microarrays were prepared with 10 wells/slide, wherein the kinases EPHB3, FYN, and PRKCD and their substrate were immobilized in each well. The slide was coated with substrate essentially as described in section 6.1. Subsequently, a gasket with 10 openings was applied to the surface of the slide thereby creating 10 wells, i.e., the gasket provides the barriers between the wells.

Chain of PRKCD (Q05655 whole entry): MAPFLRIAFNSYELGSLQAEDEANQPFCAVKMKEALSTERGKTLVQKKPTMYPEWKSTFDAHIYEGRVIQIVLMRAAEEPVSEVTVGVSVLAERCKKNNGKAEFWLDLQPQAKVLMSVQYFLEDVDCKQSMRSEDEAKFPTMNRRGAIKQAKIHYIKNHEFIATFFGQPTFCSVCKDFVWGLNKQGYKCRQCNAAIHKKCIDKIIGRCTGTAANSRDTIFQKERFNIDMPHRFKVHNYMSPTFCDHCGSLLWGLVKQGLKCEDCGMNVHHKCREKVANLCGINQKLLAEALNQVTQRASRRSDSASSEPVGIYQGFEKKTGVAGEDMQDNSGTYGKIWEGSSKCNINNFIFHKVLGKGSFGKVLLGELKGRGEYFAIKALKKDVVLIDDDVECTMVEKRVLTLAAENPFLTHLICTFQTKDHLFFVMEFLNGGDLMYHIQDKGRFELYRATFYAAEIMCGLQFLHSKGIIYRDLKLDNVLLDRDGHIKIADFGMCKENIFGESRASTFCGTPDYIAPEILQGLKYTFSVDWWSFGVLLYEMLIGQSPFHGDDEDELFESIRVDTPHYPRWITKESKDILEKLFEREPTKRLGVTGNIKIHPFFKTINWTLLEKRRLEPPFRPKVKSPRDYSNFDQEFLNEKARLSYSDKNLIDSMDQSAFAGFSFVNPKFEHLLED

CC(C)(C)n1nc(-c2ccc(Cl)cc2)c2c(N)ncnc21 [PP2]
inhibition of PRKCD (dose-response curve): but not the serine/threonine kinase PRKCD
